How the values were obtained:
annual bluegrass [1] = experiment: Soil treatment test for upland field; type: in vivo, Poa annua; set-up: key: 0 = normal development, 5 = all killed; settings: 500 g/ha, 3 weeks, glass house 25° C.
Outline: (§1)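 Using a pre-emergence soil application at 500 g/ha, treated pots were held 3 weeks in a glass house averaging 25° C. Injury was graded on a 0–5 scale against non-treated pots; "-" marks entries not investigated.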

bulrush = experiment: Herbicidal test for paddy field; type: in vivo, Scrips juncoides; settings: 500 g/ha, dropwise addition to paddy water at 1.5 leaf stage of barnyard grass; glass house 25° C., 3 weeks; rank 0-5 vs non-treated district
Outline: (§2)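 Wettable-powder formulations in water with 0.05% surfactant were dripped onto flooded (3 cm) Ube alluvial-soil pots at 500 g/ha, applied at barnyard grass 1.5-leaf stage. Plants were kept in a glasshouse at 25° C. for 3 weeks. Damage was scored 0 (normal) to 5 (all killed) versus untreated plants.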

barnyardgrjass = experiment: Foliar spread test for upland field; type: in vivo, Eschinochloa crusgalli; set-up: key: 0 = normal development, 5 = all killed (6 ranks vs. untreated); settings: foliar spray, 500 ppm, 3 weeks, glass house 25° C.
Outline: (§3)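 Plants grown about 2 weeks at 25 °C in volcanic ash soil were sprayed with wettable powder diluted to 500 ppm in water with 0.5% surfactant. After 3 weeks at 25 °C, damage was scored 0 (normal) to 5 (all killed) against untreated plants.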

annual bluegrass [2] = experiment: Foliar spread test for upland field; type: in vivo, Poa annua; set-up: key: 0 = normal development, 5 = all killed (6 ranks vs. untreated); settings: foliar spray, 500 ppm, 3 weeks, glass house 25° C.
Outline: as §3

arrowhead = experiment: Herbicidal test for paddy field; type: in vivo, Sagittaria pygmaea; settings: 500 g/ha, dropwise addition to paddy water at 1.5 leaf stage of barnyard grass; glass house 25° C., 3 weeks; rank 0-5 vs non-treated district
Method: Wagner pots, each having an area of 1/5000 are, were packed with Ube soil (alluvial soil) and planted with seeds or tubers of young rice plant, barnyard grass, bulrush, Cyperus serotinus Rottb., arrowhead and monochoria. Then, the pots were filled with water to a depth of 3 cm.
Each wettable powder of the desired Compounds (I) shown in Tables 1 to 21, 24, 25, 28 and 29 prepared in accordance with Example 2 was diluted with water containing a surfactant (0.05%) and subjected to dropwise addition treatment by using pipet so that an effective concentration of the compound (I) in each herbicide became 500 g/ha at 1.5 leaf stage of barnyard grass.
(§4) These plants were controlled in a glass house at an average temperature of 25° C. for 3 weeks, and then herbicidal effects thereof were investigated.
(§5) The herbicidal effects are evaluated according to the following 6 ranks as compared with non-treated district. (0: normal development, 1: Less damaged, 2: Slightly damaged, 3: Moderately damaged, 4: Severely damaged, 5: All killed). Incidentally, “-” in the column means not investigated.

morning glory [3] = experiment: Soil treatment test for upland field; type: in vivo, Ipomoea spps.; set-up: key: 0 = normal development, 5 = all killed; settings: 500 g/ha, 3 weeks, glass house 25° C.
Outline: as §1

livid amaranth [4] = experiment: Foliar spread test for upland field; type: in vivo, Amaranthus lividus; set-up: key: 0 = normal development, 5 = all killed (6 ranks vs. untreated); settings: foliar spray, 500 ppm, 3 weeks, glass house 25° C.
Outline: as §3

velvetleaf [5] = experiment: Foliar spread test for upland field; type: in vivo, Abutilon theophrasti; set-up: key: 0 = normal development, 5 = all killed (6 ranks vs. untreated); settings: foliar spray, 500 ppm, 3 weeks, glass house 25° C.
Outline: as §3

livid amaranth [6] = experiment: Soil treatment test for upland field; type: in vivo, Amaranthus lividus; set-up: key: 0 = normal development, 5 = all killed; settings: 500 g/ha, 3 weeks, glass house 25° C.
Outline: as §1

Large crabgrass [7] = experiment: Foliar spread test for upland field; type: in vivo, Digitaria adscendens; set-up: key: 0 = normal development, 5 = all killed (6 ranks vs. untreated); settings: foliar spray, 500 ppm, 3 weeks, glass house 25° C.
Outline: as §3

common lambsquarters [8] = experiment: Soil treatment test for upland field; type: in vivo, Chenopodium album; set-up: key: 0 = normal development, 5 = all killed; settings: 500 g/ha, 3 weeks, glass house 25° C.
Outline: as §1

Cyperus serotinus Rottb. = experiment: Herbicidal test for paddy field; type: in vivo; settings: 500 g/ha, dropwise addition to paddy water at 1.5 leaf stage of barnyard grass; glass house 25° C., 3 weeks; rank 0-5 vs non-treated district
Outline: as §2

barnyard grass [9] = experiment: Soil treatment test for upland field; type: in vivo, Eschinochloa crusgalli; set-up: key: 0 = normal development, 5 = all killed; settings: 500 g/ha, 3 weeks, glass house 25° C.
Outline: as §1

green foxtail [10] = experiment: Foliar spread test for upland field; type: in vivo, Setaria viridis; set-up: key: 0 = normal development, 5 = all killed (6 ranks vs. untreated); settings: foliar spray, 500 ppm, 3 weeks, glass house 25° C.
Outline: as §3

blackgrass [11] = experiment: Foliar spread test for upland field; type: in vivo, Alopecurus aegualis; set-up: key: 0 = normal development, 5 = all killed (6 ranks vs. untreated); settings: foliar spray, 500 ppm, 3 weeks, glass house 25° C.
Outline: as §3

Large crabgrass [12] = experiment: Soil treatment test for upland field; type: in vivo, Digitaria adscendens; set-up: key: 0 = normal development, 5 = all killed; settings: 500 g/ha, 3 weeks, glass house 25° C.
Outline: as §1

solgum [13] = experiment: Soil treatment test for upland field; type: in vivo; set-up: key: 0 = normal development, 5 = all killed; settings: 500 g/ha, 3 weeks, glass house 25° C.
Outline: as §1

sugar beat [14] = experiment: Soil treatment test for upland field; type: in vivo; set-up: key: 0 = normal development, 5 = all killed; settings: 500 g/ha, 3 weeks, glass house 25° C.
Outline: as §1

wheat [15] = experiment: Soil treatment test for upland field; type: in vivo; set-up: key: 0 = normal development, 5 = all killed; settings: 500 g/ha, 3 weeks, glass house 25° C.
Outline: as §1

corn [16] = experiment: Soil treatment test for upland field; type: in vivo; set-up: key: 0 = normal development, 5 = all killed; settings: 500 g/ha, 3 weeks, glass house 25° C.
Outline: as §1

solgum [17] = experiment: Foliar spread test for upland field; type: in vivo; set-up: key: 0 = normal development, 5 = all killed (6 ranks vs. untreated); settings: foliar spray, 500 ppm, 3 weeks, glass house 25° C.
Outline: as §3

soybean [18] = experiment: Foliar spread test for upland field; type: in vivo; set-up: key: 0 = normal development, 5 = all killed (6 ranks vs. untreated); settings: foliar spray, 500 ppm, 3 weeks, glass house 25° C.
Outline: as §3

sugar beat [19] = experiment: Foliar spread test for upland field; type: in vivo; set-up: key: 0 = normal development, 5 = all killed (6 ranks vs. untreated); settings: foliar spray, 500 ppm, 3 weeks, glass house 25° C.
Outline: as §3

wheat [20] = experiment: Foliar spread test for upland field; type: in vivo; set-up: key: 0 = normal development, 5 = all killed (6 ranks vs. untreated); settings: foliar spray, 500 ppm, 3 weeks, glass house 25° C.
Outline: as §3

cotton [21] = experiment: Foliar spread test for upland field; type: in vivo; set-up: key: 0 = normal development, 5 = all killed (6 ranks vs. untreated); settings: foliar spray, 500 ppm, 3 weeks, glass house 25° C.
Outline: as §3

corn [22] = experiment: Foliar spread test for upland field; type: in vivo; set-up: key: 0 = normal development, 5 = all killed (6 ranks vs. untreated); settings: foliar spray, 500 ppm, 3 weeks, glass house 25° C.
Outline: as §3

barnyard grass [23] = experiment: Herbicidal test for paddy field; type: in vivo, Eschinochloa crusgalli; settings: 500 g/ha, dropwise addition to paddy water at 1.5 leaf stage of barnyard grass; glass house 25° C., 3 weeks; rank 0-5 vs non-treated district
Outline: as §2

blackgrass [24] = experiment: Soil treatment test for upland field; type: in vivo, Alopecurus aegualis; set-up: key: 0 = normal development, 5 = all killed; settings: 500 g/ha, 3 weeks, glass house 25° C.
Outline: as §1

Cassia obtusifolia = experiment: Foliar spread test for upland field; type: in vivo; set-up: key: 0 = normal development, 5 = all killed; settings: foliar spray, 500 ppm, 3 weeks, glass house 25° C.
Method: as §5
(§6) Wagner pots, each having an area of 1/5000 are, were packed with volcanic ash soil and then each seed of corn, soybean, cotton, wheat, solgum, sugar beat, Large crabgrass, barnyardgrjass, green foxtail, blackgrass, annual bluegrass, common lambsquarters, livid amaranth, velvetleaf, morning glory, Xanthium pensylvanicum and Cassia obtusifolia was planted, covered with soil and grown in a glass house at an average temperature of 25° C. for about 2 weeks.
(§7) Each wettable powder of the desired compounds (I) shown in Tables 1 to 21, 24, 25, 28 and 29 prepared in accordance with Example 2 was diluted to 500 ppm with water containing a surfactant (0.5%) and then uniformly sprayed on the above respective plants.
(§8) After these plants were controlled in a glass house at an average temperature of 25° C. for 3 weeks, the herbicidal effects thereof were investigated.
(§9) The herbicidal effects were evaluated according to the evaluation method described in the above (1).

Xanthium pensylvanicum = experiment: Foliar spread test for upland field; type: in vivo; set-up: key: 0 = normal development, 5 = all killed; settings: foliar spray, 500 ppm, 3 weeks, glass house 25° C.
Method: as §5, §6, §7, §8, §9

common lambsquarters [25] = experiment: Foliar spread test for upland field; type: in vivo, Chenopodium album; set-up: key: 0 = normal development, 5 = all killed (6 ranks vs. untreated); settings: foliar spray, 500 ppm, 3 weeks, glass house 25° C.
Outline: as §3

velvetleaf [26] = experiment: Soil treatment test for upland field; type: in vivo, Abutilon theophrasti; set-up: key: 0 = normal development, 5 = all killed; settings: 500 g/ha, 3 weeks, glass house 25° C.
Outline: as §1

[27] = system: sicklepod (Cassia obtusifolia); experiment: Soil treatment test for upland field; type: in vivo; settings: 500 g/ha, 3 weeks, glass house 25° C.
Method: as §5
(§10) Wagner pots, each having an area of 1/5000 are, were packed with Ube soil (alluvial soil), and then each seed of corn, soybean, cotton, wheat, solgum, sugar beat, Large crabgrass, barnyard grass, green foxtail, blackgrass, annual bluegrass, common lambsquarters, livid amaranth, velvetleaf, morning glory, common Cocklebur (Xanthium strumarium) and sicklepod (Cassia obtusifolia) were planted and covered with soil.
(§11) Each wettable powder of the desired compounds (I) shown in Tables 1 to 21, 24, 25, 28 and 29 prepared in accordance with Example 2 was diluted with water containing a surfactant (0.05%) and uniformly sprayed on the surface of each soil so that an effective concentration of the compound (I) in each herbicide became 500 g/ha.
as §4, §9

[28] = system: common Cocklebur (Xanthium strumarium); experiment: Soil treatment test for upland field; type: in vivo; settings: 500 g/ha, 3 weeks, glass house 25° C.
Method: as §5, §10, §11, §4, §9

morning glory [29] = experiment: Foliar spread test for upland field; type: in vivo, Ipomoea spps.; set-up: key: 0 = normal development, 5 = all killed (6 ranks vs. untreated); settings: foliar spray, 500 ppm, 3 weeks, glass house 25° C.
Outline: as §3

green foxtail [30] = experiment: Soil treatment test for upland field; type: in vivo, Setaria viridis; set-up: key: 0 = normal development, 5 = all killed; settings: 500 g/ha, 3 weeks, glass house 25° C.
Outline: as §1

soybean [31] = experiment: Soil treatment test for upland field; type: in vivo; set-up: key: 0 = normal development, 5 = all killed; settings: 500 g/ha, 3 weeks, glass house 25° C.
Outline: as §1

cotton [32] = experiment: Soil treatment test for upland field; type: in vivo; settings: 500 g/ha, 3 weeks, glass house 25° C.
Method: as §5, §10, §11, §4, §9

SMILES	Effects Annual bluegrass (annual bluegrass [1])	Effects Bulrush (bulrush)	Effects Barnyardgrass (barnyardgrjass)	Effects Annual bluegrass (annual bluegrass [2])	Effects Morning glory (morning glory [3])	Effects Livid amaranth (livid amaranth [4])	Effects Velvetleaf (velvetleaf [5])	Effects Livid amaranth (livid amaranth [6])	Effects Large crabgrass (Large crabgrass [7])	Effects Common lambsquarters (common lambsquarters [8])	Effects Cyperus serotinus Rottb. (Cyperus serotinus Rottb.)	Effects Barnyardgrass (barnyard grass [9])	Effects Green foxtail (green foxtail [10])	Effects Blackgrass (blackgrass [11])	Effects Large crabgrass (Large crabgrass [12])	Effects Solgum (solgum [13])	Effects Sugar beat (sugar beat [14])	Effects Wheat (wheat [15])	Effects Corn (corn [16])	Effects Solgum (solgum [17])	further results
FC(F)(F)c1cccc(Oc2cccc(-c3nc4ccccc4o3)n2)c1 [I-a-1]	5	2	3	4	4	5	4	5	4	5	2	4	5	2	5	2	5	1	0	2	Effects Arrowhead (arrowhead): 1; Effects Soybean (soybean [18]): 5; Effects Sugar beat (sugar beat [19]): 4; Effects Wheat (wheat [20]): 2; Effects Sotton (cotton [21]): 4; Effects Corn (corn [22]): 2; Effects Barnyardgrass (barnyard grass [23]): 4; Effects Blackgrass (blackgrass [24]): 4; Effects Sicklepod (Cassia obtusifolia): 5; Effects Common Cocklebur (Xanthium pensylvanicum): 4; Effects Common lambsquarters (common lambsquarters [25]): 5; Effects Velvetleaf (velvetleaf [26]): 3; Effects Sicklepod [27]: 3; Effects Common Cocklebur [28]: 5; Effects Morning glory (morning glory [29]): 5; Effects Green foxtail (green foxtail [30]): 5
CC/C(=C\c1ccc(F)c(C(F)(F)F)c1)c1nc2cc(Cl)ccc2o1 [I-c-54, (E)-2-(5-chlorobenzoxazol-2-yl)-1-(4-fluoro-3-trifluoromethylphenyl)butene]	5	3	2	4	5	5	3	5	4	5	3	5	4	4	5	2	5	1	1	3	Effects Soybean (soybean [31]): 5; Effects Soybean (soybean [18]): 4; Effects Sugar beat (sugar beat [19]): 5; Effects Wheat (wheat [20]): 2; Effects Sotton (cotton [21]): 3; Effects Corn (corn [22]): 3; Effects Barnyardgrass (barnyard grass [23]): 5; Effects Blackgrass (blackgrass [24]): 5; Effects Common lambsquarters (common lambsquarters [25]): 5; Effects Velvetleaf (velvetleaf [26]): 5; Effects Sotton (cotton [32]): 3; Effects Morning glory (morning glory [29]): 3; Effects Green foxtail (green foxtail [30]): 5

Source: patent US7402548B2, “Benzoxazole compounds, process for producing the same and herbicides” (Kyoyu Agri Co., Ltd., priority 2000, dated 2008)
